Our source for the Activity, pKa and inhibition values is ChEMBL document CHEMBL1150516, “Synthesis and biological activity of C-6 modified derivatives of the glucosidase inhibitor 1-deoxynojirimycin” (Bioorg Med Chem Lett, 1992).

Each structure is given as a SMILES string. Active and inactive are the calls of the source. The calls are words filed in the database; no cut-off is given here.

Data set [1] is described as follows: Competitive Inhibition constant on almonds beta Glucosidase; NI=No inhibition. The note with it: Prunus dulcis.
A short description of data set [2]: Competitive Inhibition constant on jack bean mannosidase; NI=No inhibition. The note with it: Canavalia ensiformis.
The nature of data set [3]: pKa value was determined. In kind it is physicochemical.
Data set [4] in a line: Percentase inhibition on glucosidase I of glycoprotein trimming from pig liver at 1 mM concentration. In kind it is functional. To be noted: Sus scrofa.
The species named for data set [5] is Sus scrofa. The data set can be described thus: Percentase inhibition on glucosidase I of glycoprotein trimming from pig liver at 2.5 mM concentration; NI=No inhibition. In kind it is functional, tissue-based.

For the molecule `OC[C@H]1NC[C@@H](F)[C@@H](O)[C@@H]1O`, the outcome in data set [1] and in data set [2] was inactive.

By pKa is commonly meant the negative logarithm of the acid dissociation constant. In the case of `OC1CCN2C[C@H](O)[C@@H](O)[C@H](O)C12` (some centres undefined), the pKa in data set [3] is about 6.5.

On to `OC[C@H]1NC[C@H](O)[C@@H](O)[C@@H]1O` [DUVOGLUSTAT], for which, in data set [3], the pKa was about 6.5.

A word on the inhibition: it is the share of the control response that was lost under treatment. `CCC(O)[C@H]1NC[C@H](O)[C@@H](O)[C@@H]1O` (some centres undefined) yielded a pKa in data set [3] of about 6.5. In data set [4], this molecule registered an inhibition at 1000 µM of 50%. Moreover, in data set [5], the inhibition result was “inactive”.

Turning to `CCO[C@@H]1CN[C@H](CO)[C@@H](O)[C@@H]1O`, the outcome in data set [1] and in data set [2] was inactive.
